Assay results published in patent US20100316729A1, “Use of Hyperbaric Conditions to Provide Neuroprotection” (AIR PRODUCTS AND CHEMICALS, INC., priority 2007, published 2010).
“Also recorded” adds a separate entry of the source.

Tested on: organotypic hippocampal slice cultures (focal trauma to the CA1 region)
Assay: in vitro model of traumatic brain injury: focal mechanical trauma to organotypic hippocampal slices, injury quantified by propidium iodide fluorescence
Format: cell-based, C57/BL6 mice
Conditions: for effect of added pressure of gas on development of total injury, highest added pressure / effect of added pressure of gas on development of total injury, low added pressures: gas added to 1 atm of 95% air/5% CO2, FIG. 4 / FIG. 5; for effect of added pressure of gas on development of total injury, highest added pressure: highest pressure tested (about 2 atm added, about 3 atm total); for effect of added pressure of gas on development of total injury, low added pressures: low added pressures (up to about 1 atm); for predicted level of normalized injury after 72 hours / observed degree of normalized injury after 72 hours: normobaric; for predicted level of normalized injury after 72 hours: 75% test gas replacing nitrogen, calculated from dashed lines of FIG. 4 / FIG. 5; for observed degree of normalized injury after 72 hours: 75% test gas/20% oxygen/5% CO2 (test gas substituted for nitrogen), 37° C., injury relative to control (75% nitrogen, 1 atm, 72 h) = 1
Description: The properties of xenon and other gases were investigated in an in vitro model of traumatic brain injury (as described below in greater detail, under the heading “Example”). The model chosen involved creating a focal mechanical trauma centered on the CA1 region of cultured hippocampal brain slices, and assessing neurological injury using propidium iodide staining. A small solenoid retains a stylus 5 mm above a cultured hippocampal slice which is positioned using a micromanipulator. A fiber-optic light source illuminates the slice from beneath. As shown in (B) the stylus is constrained in a glass capillary and positioned just above the CA1 region of the hippocampus.
Organotypic hippocampal slice cultures were prepared as reported by Stoppini L, et al in “A simple method for organotypic cultures of nervous tissue” J Neurosci Methods 1991; 37:173-82, subject to some modifications. Briefly, brains were removed from seven-day-old C57/BL6 mice pups (Harlan UK Ltd., Bicester, Oxfordshire, UK) and placed in ice-cold “preparation” medium. The preparation medium contained Gey's balanced salt solution and 5 mg ml^−1 D-glucose (BDH Chemicals Ltd., Poole, Dorset, UK). The hippocampi were removed from the brains and 400 μm thick transverse slices were prepared using a McIllwain tissue chopper. Slices were transferred into ice-cold preparation medium, gently separated and then placed onto tissue culture inserts (Millicell-CM, Millipore Corporation, Billerica, Mass.) which were inserted into a six-well tissue culture plate. The wells contained “growth” medium which consisted of 50% Minimal Essential Media Eagle, 25% Hank's balanced salt solution, 25% inactivated horse serum, 2 mM L-glutamine, 5 mg ml^−1 D-glucose (BDH) and 1% antibiotic-antimycotic suspension. Slices were incubated at 37° C. in a 95% air/5% CO2 humidified atmosphere. The growth medium was changed every three days. Experiments were carried out after 14 days in culture.
After the hippocampal slices had been in culture for 14 days, the growth medium was changed to “experimental” medium. The experimental medium was serum-free and consisted of 75% Minimal Essential Media Eagle, 25% Hank's balanced salt solution, 2 mM L-glutamine, 5 mg ml^−1 D-glucose, 1% antibiotic-antimycotic suspension and 4.5 μM propidium iodide.
The trauma to the slices was produced with a specially designed apparatus (FIG. 1) which was based on published descriptions (Adamchik Y, et al “Methods to induce primary and secondary traumatic damage in organotypic hippocampal slice cultures” Brain Res Brain Res Protoc 2000; 5:153-8 and Adembri C, et al “Erythropoietin attenuates post-traumatic injury in organotypic hippocampal slices” J Neurotrauma 2004; 21:[…], 21). Under a stereomicroscope a stylus was positioned 5 mm above the CA1 region of the hippocampus using a three-axis micromanipulator. The stylus dropped onto the slice with an impact of 3.5 μJ when power to a small electromagnet was switched off. […] The distal part of the stylus was smooth and rounded in order to prevent perforation of the slice and the impact produced a focal injury with a diameter of 750±17 μm (mean±SD).
After traumatizing the CA1 region, the culture trays were transferred to a small pressure chamber which contained a high-speed fan for rapid gas mixing. The pressure chamber was capable of maintaining a constant pressure of up to six atmospheres for several days. The pressure chamber was housed in an incubator which was set at 37° C. for normothermic experiments or 32° C. for experiments at moderate hypothermia. Subsequently, the pressure chamber (gas volume 0.925 litre) was flushed with humidified control gas (95% air and 5% CO2) for 5 min at 5 litres min^−1 which ensures better than 99.99% gas replacement. After flushing, the pressure chamber was sealed, and slices under these conditions were considered to be the “injury controls” (75% nitrogen/20% oxygen/5% CO2). […]

Structure (SMILES)	theoretical effect of increased gas level per se (effects of helium/pressure subtracted) (dashed line in FIG. 4, independent of the effects of pressure)	injury outcome with added nitrogen compared with added helium (nitrogen substituted for helium as added gas, all pressures 0.25-2 atm added, FIG. 4)	effect of added pressure of gas on development of total injury, highest added pressure	effect of added pressure of gas on development of total injury, low added pressures	predicted level of normalized injury after 72 hours	observed degree of normalized injury after 72 hours
N#N [nitrogen]	detrimental in a fashion that is roughly linear with increasing amounts	significantly worse injury outcome				
[He] [helium]			came back close to control levels	potent neuroprotection; also recorded: injury decreased	0.75	0.67±0.10
[Xe] [xenon]			toxicity; also recorded: significant neurotoxicity	marked neuroprotection	0.59	0.50±0.04
